Laboratory results published in patent US7605265B2, “Heterodimers and methods of using them” (priority 2007, dated 2009).

Tests used:
[1] = tested on: scopolamine-induced memory impaired rats; assay: Morris water maze, scopolamine-induced memory impairment; format: in vivo, rat; conditions: for spatial bias: scopolamine 0.1 mg/kg; for spatial bias (% of total distance swum in the training quadrant during spatial probe trial): memory-impaired rats, FIG. 4d-4f; for escape latency: 4 days
Procedure: The Morris water maze consists of a water pool with a hidden, submerged escape platform. The rats must learn, over a period of consecutive days, the location of the platform using either contextual or local cues. The time taken to locate the hidden platform (escape latency) is a measure of the animal's cognitive abilities.
(§1) Scopolamine (0.1 mg/kg) was first i.p. administered to young adult rats to impair their memories. Scopolamine-induced memory impaired rats were then orally administered one of three different doses of compound B (0.025, 0.050, or 0.100 mg/kg) and subjected to the Morris water maze over a period of 4 days. On each day, the time taken for the rats to detect the hidden platform in the water maze was measured, in seconds.
as §1, with “C (0.1, 0.2,” for “B (0.025, 0.050,”, “0.4” for “0.100”
as §1, with “A (0.1, 0.2,” for “B (0.025, 0.050,”, “0.4” for “0.100”
A spatial bias (% of total distance swum in the training quadrant during spatial probe trial) for the region of the apparatus where the platform was positioned during training was also measured for compounds B and C.
The spatial bias for the region of the testing apparatus where the hidden platform was positioned during training was measured. […] Tacrine (THA) was included for comparison purposes.

NMDA receptor = target: T1, NMDA receptor (Rattus norvegicus, UniProt P35439); assay: Whole cell patch clamp, NMDA-induced current in hippocampal neurons; format: cell-based; conditions: DIV10-14 rat hippocampal neurons, NMDA 50 μM, compound 10 μg/mL; FIG. 1
T1 construct: Hippocampal neurons from embryonic day 18 rats were isolated, trypsinized, plated onto 35-mm plates; endogenous in cells; host or cells: primary hippocampal neurons from embryonic day 18 rats, DIV10-14
Procedure: The NMDA receptor is a gated ion channel, which allows inflow of current during a nerve impulse. Antagonists to the receptor would prevent the inflow of current. Memantine, a known NMDA antagonist was used as the positive control.
Hippocampal neurons from embryonic day 18 rats were isolated, trypsinized, plated onto 35-mm plates at a density of 3×10^4 cells/plate and cultured in Neurobasal medium (NB) supplemented with B27 nutrient. DIV10-14 rat hippocampal neurons were treated with NMDA (50 μM) in the absence or presence of the novel compounds (Cpd A, B and C) (10 μg/mL). Data is presented as % of NMDA-induced current. DMSO is the solvent control.

rat cortical neurons = assay: NMDA survival assay (LDH release) in cortical neurons; format: cell-based; conditions: DIV11 rat cortical neurons, NMDA 20 μM, compound 0.001-10 μg/mL, LDH at 24 hr; FIG. 3
Procedure: The compounds were subjected to NMDA survival assays to investigate their ability to prevent NMDA receptor-induced excitotoxicity. The NMDA survival assay was performed to measure the degree of protection provided to cortical neuronal cells when treated with the compounds prior to an ischemic insult.
DIV10 cortical neurons were treated with NMDA (20 μM) in the presence of compound (cpd) B or C (μg/mL). LDH release in the medium was detected at 24 hr after treatment. DMSO was used as the solvent control, while MK-801 (10 μM) is a known NMDA antagonist.
DIV11 rat cortical neurons were treated with NMDA (20 μM) in the absence or presence of compounds (MK-801, 10 μM; compound A, 0.001-10 μg/mL). LDH release in the medium was detected at 24 hr after treatment. DMSO was used as the solvent control.

Compound	scopolamine-induced performance deficits (escape latency) ([1]; 0.2 and 0.4 mg/kg orally, scopolamine 0.1 mg/kg i.p., FIG. 4c)	spatial bias ([1]; 0.2 and 0.4 mg/kg, FIG. 4e, 4f)	spatial bias (% of total distance swum in the training quadrant during spatial probe trial) [1]	NMDA-induced current (NMDA receptor)	protection against NMDA insults (LDH release) (rat cortical neurons)	escape latency ([1]; 0.1 mg/kg orally, scopolamine 0.1 mg/kg i.p., FIG. 4a)	spatial bias ([1]; 0.05 and 0.1 mg/kg p.o., FIG. 4d)	escape latency, compared with tacrine ([1]; 0.2 mg/kg and 0.4 mg/kg vs 1.5 mg/kg tacrine (THA))	escape latency ([1]; 0.4 mg/kg orally, scopolamine 0.1 mg/kg i.p., FIG. 4b)
O=c1ccc2c([nH]1)CCC(NCCCNc1c3c(nc4cc(Cl)ccc14)CCCC3)C2 (centres unmarked) [Compound A]	significantly reversed scopolamine-induced performance deficits	spatial bias close to control levels	significantly increased spatial bias	decreased NMDA-induced current in hippocampal neurons	capable of protecting cortical neurons against NMDA insults	–	–	–	–
O=c1ccc2c([nH]1)CCCC2NCCCCCCCNc1c2c(nc3cc(Cl)ccc13)CCCC2 (centres unmarked) [Compound B]	–	–	significantly increased spatial bias	decreased NMDA-induced current in hippocampal neurons	–	reversed the increased escape latency induced by scopolamine	spatial bias close to control levels	–	–
O=c1ccc2c([nH]1)CCCC2NCCCCCCCCNc1c2c(nc3cc(Cl)ccc13)CCCC2 (centres unmarked) [Compound C]	–	spatial bias close to control levels	significantly increased spatial bias	decreased NMDA-induced current in hippocampal neurons	–	–	–	more effective that 1.5 mg/kg tacrine	significantly reversed the increased escape latency induced by scopolamine
